Experimental findings from patent US10206911B2, “Androgen receptor variants and methods for making and using” (MEMORIAL SLOAN-KETTERING CANCER CENTER, priority 2012, dated 2019) are described below.

Assay [1] addresses T1, AR F876L (Homo sapiens, UniProt P10275, DEL79-80/DUP473-473/F877L).
T1 construct: expressed in transfected cells
T1 sequence (P10275 with tags, fused parts or gaps DEL79-80/DUP473-473/F877L): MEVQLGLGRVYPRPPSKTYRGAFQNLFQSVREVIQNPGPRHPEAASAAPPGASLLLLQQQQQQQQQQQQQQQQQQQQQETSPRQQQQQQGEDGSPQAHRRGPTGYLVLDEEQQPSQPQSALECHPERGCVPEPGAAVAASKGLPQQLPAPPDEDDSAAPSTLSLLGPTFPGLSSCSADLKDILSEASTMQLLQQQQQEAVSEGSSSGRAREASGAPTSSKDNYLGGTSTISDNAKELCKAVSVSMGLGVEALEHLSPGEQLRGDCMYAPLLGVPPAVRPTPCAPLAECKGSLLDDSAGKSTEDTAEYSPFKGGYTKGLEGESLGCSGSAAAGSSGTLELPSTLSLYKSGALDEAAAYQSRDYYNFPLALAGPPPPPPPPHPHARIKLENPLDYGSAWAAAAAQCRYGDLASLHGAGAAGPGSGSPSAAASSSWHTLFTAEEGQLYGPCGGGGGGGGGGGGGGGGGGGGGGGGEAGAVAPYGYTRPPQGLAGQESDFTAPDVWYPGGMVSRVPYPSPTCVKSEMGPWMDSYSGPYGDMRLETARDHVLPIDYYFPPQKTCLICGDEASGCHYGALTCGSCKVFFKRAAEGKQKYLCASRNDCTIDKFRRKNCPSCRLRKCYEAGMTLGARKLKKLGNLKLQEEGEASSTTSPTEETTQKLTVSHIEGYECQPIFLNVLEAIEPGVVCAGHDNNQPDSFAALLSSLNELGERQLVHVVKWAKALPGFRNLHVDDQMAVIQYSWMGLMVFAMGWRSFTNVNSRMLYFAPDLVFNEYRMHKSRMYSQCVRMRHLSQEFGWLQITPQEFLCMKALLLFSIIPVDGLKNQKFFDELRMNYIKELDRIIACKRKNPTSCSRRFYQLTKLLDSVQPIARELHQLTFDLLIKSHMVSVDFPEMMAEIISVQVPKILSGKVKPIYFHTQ
Briefly: EGFP reporter assay of AR activity, LNCaP-Pb.PSE.EGFP cells, flow cytometry. Format: cell-based. The conditions noted are these: 10 μM, 4 days of treatment. The text has this: (§1) This clone was used for all flow cytometry assays and for the FACS-based resistance screens.
In general terms: In a reporter assay the amount or activity of a reporter protein is the signal.

Assay [2] has as its target T2, AR WT (Homo sapiens, UniProt P10275, DEL79-80/DUP473-473).
T2 construct: expressed in transfected cells; host or cells: LNCaP-Pb.PSE.EGFP (pantropic retroviral infection, blasticidin selection)
T2 sequence (P10275 with tags, fused parts or gaps DEL79-80/DUP473-473): T1 sequence (P10275 with tags, fused parts or gaps DEL79-80/DUP473-473/F877L) with L876F
The assay is described as above. The format is cell-based. The conditions noted are these: 10 μM, 4 days of treatment.
Description: as §1

For assay [3], the system named is AR mutants isolated from drug resistant CWR22Pc cells. Briefly: EGFP reporter assay and qRT-PCR, LNCaP/Pb.PSE.EGFP cells. The conditions noted are these: 10 μM antiandrogen; variable degrees, gene-specific differences. The format is cell-based, human.
Assay [4] concerns AR mutants isolated from drug resistant LNCaP/AR xenograft tumors. Briefly: Luciferase reporter assay of AR activity in androgen depleted media, CV1 cells. The format is cell-based, human. The conditions noted are these: 10 μm antiandrogen.
The test system is the same in assay [5]. Briefly: EGFP reporter assay of AR activity, LNCaP/Pb.PSE.EGFP cells. The format is cell-based, human. The conditions noted are these: androgen containing media, 10 μM antiandrogen. The protocol:
Additionally, EGFP reporter assays of AR activity in cells expressing the indicated AR mutants were performed and the data are presented in FIG. 21A and FIG. 21B.

For assay [6], the system named is DU145 (an AR null human prostate cancer cell line). Briefly: DU145 cell viability (CellTiterGLO). The format is cell-based. The conditions noted are these: 10 μM, full serum containing media. The protocol:
DU145 cells were cultured in full serum containing media with 10 uM of the indicated antiandrogens. CellTiterGLO assay was performed on days 0, 3, and 6 to determine cell viability. RLU=relative light units.
For orientation: ATP-based viability assays read luminescence as a measure of living cells.

The test system of assay [7] is VCaP cells overexpressing AR WT. Briefly: VCaP growth assay (CellTiter-GLO). Format: cell-based, human. The conditions noted are these: full-serum containing media, 10 μM.
The subject of assay [8] is VCaP cells overexpressing AR F876L. Briefly: VCaP growth assay (CellTiter-GLO). The format is cell-based, human. The conditions noted are these: full-serum containing media, 10 μM.

Changes are numbered by the printed parent chain. Entries after “also recorded” stand apart in the source; their conditions may differ.

Turning to `CNC(=O)c1ccc(N2C(=S)N(c3cnc(C#N)c(C(F)(F)F)c3)C(=O)C23CCCC(C)(C)C3)cc1F` (racemic) [(±)-DR106, 4-(3-(6-cyano-5-(trifluoromethyl)pyridin-3-yl)-7,7-dimethyl-4-oxo-2-thioxo-1,3-diazaspiro[4.5]decan-1-yl)-2-fluoro-N-methylbenzamide], in assay [1], the “Effect on transcriptional activity of AR F876L in EGFP reporter assay (agonism or antagonism)” value was “effectively antagonized; also recorded: AR F876L inhibition”. In assay [2], the “Effect on transcriptional activity of AR WT in EGFP reporter assay (agonism or antagonism)” value was “effectively antagonized”.

In the case of `CNC(=O)c1ccc(N2C(=S)N(c3cnc(C#N)c(C(F)(F)F)c3)C(=O)C23CCC3)cc1F` [ARN-509], the “Sensitivity of AR mutants, EGFP reporter assay & qRT-PCR” value in assay [3] is recorded as “still remained sensitive”. The “Agonism on AR mutants, luciferase reporter” value in assay [4] is recorded as “none of the mutants conferred agonism”. The “Sensitivity of AR mutants, EGFP reporter” value in assay [5] is listed as “still remained sensitive”.

`CNC(=O)c1ccc(N2CC(=O)N(c3ccc(C#N)c(C(F)(F)F)c3)C2=S)cc1F` [DR107, 4-(3-(4-cyano-3-(trifluoromethyl)phenyl)-4-oxo-2-thioxoimidazolidin-1-yl)-2-fluoro-N-methylbenzamide]: the “Effect on transcriptional activity of AR F876L in EGFP reporter assay (agonism or antagonism)” value in assay [1] is “agonist”. Moreover, the “Effect on transcriptional activity of AR WT in EGFP reporter assay (agonism or antagonism)” value in assay [2] is “agonist”.

`CNC(=O)c1ccc(N2C(=S)N(c3ccc(C#N)c(C(F)(F)F)c3)C(=O)C23CCC(C)(C)CC3)cc1F` [DR104, 4-(3-(4-cyano-3-(trifluoromethyl)phenyl)-8,8-dimethyl-4-oxo-2-thioxo-1,3-diazaspiro[4.5]decan-1-yl)-2-fluoro-N-methylbenzamide]: in assay [1], the “Effect on transcriptional activity of AR F876L in EGFP reporter assay (agonism or antagonism)” value is listed as “modest agonist”. Besides, the “Effect on transcriptional activity of AR WT in EGFP reporter assay (agonism or antagonism)” value in assay [2] is reported as “antagonist”. In assay [6], the “Proliferation of DU145 cells” value is listed as “no significant growth inhibition”.

For `CNC(=O)c1ccc(N2C(=S)N(c3ccc(C#N)c(C(F)(F)F)c3)C(=O)C23CCCCC3)cc1F` [DR101, 4-(3-(4-cyano-3-(trifluoromethyl)phenyl)-4-oxo-2-thioxo-1,3-diazaspiro[4.5]decan-1-yl)-2-fluoro-N-methylbenzamide], in assay [7], the “Growth of VCaP cells, AR WT” value is on record as “only inhibit the growth of VCaP/AR WT”. In assay [1], the “Effect on transcriptional activity of AR F876L in EGFP reporter assay (agonism or antagonism)” value is on record as “agonist”. For the same molecule, the “Growth of VCaP cells overexpressing AR F876L” value in assay [8] was “did not inhibit cell growth”.

On to `CNC(=O)c1ccc(N2C(=S)N(c3ccc(C#N)c(C(F)(F)F)c3)C(=O)C23CC(C)(C)CC(C)(C)C3)cc1F` [DR105, 4-(3-(4-cyano-3-(trifluoromethyl)phenyl)-7,7,9,9-tetramethyl-4-oxo-2-thioxo-1,3-diazaspiro[4.5]decan-1-yl)-2-fluoro-N-methylbenzamide], for which the “Effect on transcriptional activity of AR F876L in EGFP reporter assay (agonism or antagonism)” value in assay [1] was “effectively antagonized; also recorded: inhibited”. Further, the “Effect on transcriptional activity of AR WT in EGFP reporter assay (agonism or antagonism)” value in assay [2] is recorded as “effectively antagonized; also recorded: inhibited”.
